Laboratory results taken from patent US11053219B2, “Substituted pyridines as TYK2 inhibitors” (FronThera U.S. Pharmaceuticals LLC, priority 2018, dated 2021).

test system: INFα induced pSTAT5 in human PBMC; assay: INFα induced pSTAT5 in human PBMC; assay type: cell-based; conditions: Homo sapiens, PBMC, read-out: p-STAT5 IC50

| Compound | IC50 [nM] |
| --- | --- |
| [2H]C([2H])([2H])Oc1c(Nc2cc(NC(=O)C3CC3)ncc2C(=O)C2CC2)cccc1-c1ncn(C([2H])([2H])[2H])n1 [Example 127] | < 100 |
| COc1c(Nc2cc(N[S+]([O-])C(C)(C)C)ncc2C(=O)C2CC2)cccc1-c1ncn(C)n1 (stereo not shown) [Example 128] | 1000 to 10000 |

same assay, conditions: human PBMC, INFα 5000 units/ml; read-out: p-STAT5 IC50

| Compound | IC50 [nM] |
| --- | --- |
| COc1c(Nc2cc(Nc3cc(C)ccn3)ncc2C(=O)C2CC2)cccc1-c1ncn(C)n1 [Example 107] | < 100 |
| COc1c(Nc2cc(Nc3cccnn3)ncc2C(=O)C2CC2)cccc1-c1ncn(C)n1 [Example 109] | < 100 |
| COc1c(Nc2cc(Nc3ccc(N4CCOCC4)cn3)ncc2C(=O)C2CC2)cccc1-c1ncn(C)n1 [Example 110] | < 100 |
| COc1c(Nc2cc(Nc3cc(C)nc(C)n3)ncc2C(=O)C2CC2)cccc1-c1ncn(C)n1 [Example 111] | < 100 |
| COc1c(Nc2cc(Nc3cccc(C)n3)ncc2C(=O)C2CC2)cccc1-c1ncn(C)n1 [Example 112] | < 100 |
| COc1c(Nc2cc(Nc3ccc(C)nn3)ncc2C(=O)C2CC2)cccc1-c1ncn(C)n1 [Example 113] | < 100 |
| CCC(=O)c1cnc(NC(=O)N2CCC2)cc1Nc1cccc(-c2ncn(C)n2)c1OC [Example 114] | < 100 |
| CCC(=O)c1cnc(N2CCN(C(C)C)C2=O)cc1Nc1cccc(-c2ncn(C)n2)c1OC [Example 115] | < 100 |
| CCC(=O)c1cnc(NC(=O)C2CC2)cc1Nc1cccc(-c2ncn(C)n2)c1OC [Example 116] | < 100 |
| COc1c(Nc2cc(Nc3ncccc3F)ncc2C(=O)C2CC2)cccc1-c1ncn(C)n1 [Example 119] | < 100 |
| COc1c(Nc2cc(Nc3ccc(C(C)(C)O)c(F)n3)ncc2C(=O)C2CC2)cccc1-c1ncn(C)n1 [Example 120] | < 100 |
| COc1c(Nc2cc(NC(=O)NC(C)C)ncc2C(=O)C2CC2)cccc1-c1ncn(C)n1 [Example 121] | < 100 |
| COc1c(Nc2cc(Nc3ccc(C(C)(C)O)cn3)ncc2C(=O)C2CC2)cccc1-c1ncn(C)n1 [Example 122] | < 100 |
| COc1c(Nc2cc(Nc3ccc(OC4CCOC4)cn3)ncc2C(=O)C2CC2)cccc1-c1ncn(C)n1 (stereo not shown) [Example 124] | < 100 |
| CS(=O)(=O)c1cccnc1Nc1cc(Nc2cccnn2)ncc1C(=O)C1CC1 [Example 125] | < 100 |
| CNC(=O)c1nnc(NC(=O)N2CC(C)C2)cc1Nc1cccc(-c2ncn(C)n2)c1OC [Example 129] | < 100 |
| COc1c(Nc2cc(NC(=O)C3CC3F)ncc2C(=O)C2CC2)cccc1-c1ncn(C)n1 (stereo not shown) [Example 130] | < 100 |
| COc1c(-c2ncn(C)n2)ccnc1Nc1cc(Nc2ccc(C(C)(C)O)c(F)n2)ncc1C(=O)C1CC1 [Example 131] | < 100 |
| COc1c(Nc2cc(Nc3cc(C)n(C)n3)ncc2C(=O)C2CC2)cccc1-c1ncn(C)n1 [Example 132] | < 100 |
| COc1c(Nc2cc(NC(=O)N3CC(C)(C)C3)ncc2C(=O)C2CC2)cccc1-c1ncn(C)n1 [Example 133] | < 100 |
| COc1c(Nc2cc(Nc3nccc(=O)[nH]3)ncc2C(=O)C2CC2)cccc1-c1ncn(C)n1 [Example 135] | 1000 to 10000 |
| COc1c(Nc2cc(Nc3cc(C#N)ccn3)ncc2C(=O)C2CC2)cccc1-c1ncn(C)n1 [Example 136] | < 100 |

| Compound | IC50 [nM] |
| --- | --- |
| CS(=O)(=O)c1cccnc1Nc1cc(Nc2ccccn2)ncc1C(=O)C1CC1 [Example 137] | < 100 |
| COc1c(Nc2cc(Nc3ccn(C)n3)ncc2C(=O)C2CC2)cccc1-c1ncn(C)n1 [Example 138] | < 100 |
| COc1c(Nc2cc(Nc3ccc(C#N)cn3)ncc2C(=O)C2CC2)cccc1-c1ncn(C)n1 [Example 139] | < 100 |
| COc1c(Nc2cc(Nc3cccc(C#N)n3)ncc2C(=O)C2CC2)cccc1-c1ncn(C)n1 [Example 140] | < 100 |
| COc1c(-c2ncn(C)n2)ccnc1Nc1cc(Nc2ccccn2)ncc1C(=O)C1CC1 [Example 141] | < 100 |
| [2H]C([2H])([2H])NC(=O)c1nnc(NC(=O)N2CC(C)(F)C2)cc1Nc1cccc(-c2ncn(C)n2)c1OC [Example 142] | < 100 |
| COc1c(Nc2cc(Nc3ccnc(C#N)n3)ncc2C(=O)C2CC2)cccc1-c1ncn(C)n1 [Example 143] | < 100 |
| [2H]C([2H])([2H])NC(=O)c1nnc(NC(=O)N2CC(C#N)C2)cc1Nc1cccc(-c2ncn(C)n2)c1OC [Example 144] | < 100 |
| [2H]C([2H])([2H])NC(=O)c1cnc(NC(=O)N2CC(C)(C)C2)cc1Nc1cccc(-c2ncn(C)n2)c1OC [Example 148] | < 100 |
| COc1c(Nc2cc(Nc3ccc(N4CCOCC4=O)cn3)ncc2C(=O)C2CC2)cccc1-c1ncn(C)n1 [Example 149] | < 100 |
| [2H]C([2H])([2H])NC(=O)c1nnc(NC(=O)N2CC3(CC3)C2)cc1Nc1cccc(-c2ncn(C)n2)c1OC [Example 150] | < 100 |
| [2H]C([2H])([2H])NC(=O)c1nnc(NC(=O)N2CC(F)(C#N)C2)cc1Nc1cccc(-c2ncn(C)n2)c1OC [Example 151] | < 100 |
| COc1c(Nc2cc(Nc3cnc(C)cn3)ncc2C(=O)C2CC2)cccc1-c1ncn(C)n1 [Example 152] | < 100 |
| COc1c(Nc2cc(Nc3ccnc(C)n3)ncc2C(=O)C2CC2)cccc1-c1ncn(C)n1 [Example 153] | < 100 |
| COc1c(Nc2cc(Nc3cc(C)ncn3)ncc2C(=O)C2CC2)cccc1-c1ncn(C)n1 [Example 154] | < 100 |
| COc1c(-c2ncn(C)n2)ccnc1Nc1cc(Nc2ccc(C)nn2)ncc1C(=O)C1CC1 [Example 155] | < 100 |
| [2H]C([2H])([2H])NC(=O)c1nnc(NC(=O)N2CC(C)(C)C2)cc1Nc1cccc(-c2ncn(C([2H])([2H])[2H])n2)c1OC [Example 156] | < 100 |
| [2H]C([2H])([2H])NC(=O)c1nnc(NC(=O)N2CC(C(F)F)C2)cc1Nc1cccc(-c2ncn(C)n2)c1OC [Example 157] | < 100 |
| [2H]C([2H])([2H])NC(=O)c1nnc(NC(=O)N2CC(OC)C2)cc1Nc1cccc(-c2ncn(C)n2)c1OC [Example 158] | < 100 |
| [2H]C([2H])([2H])NC(=O)c1nnc(N2CCN(C(C)C)C2=O)cc1Nc1nccc(-c2ncn(C([2H])([2H])[2H])n2)c1OC [Example 160, 6-(3-isopropyl-2-oxo-imidazolidin-1-yl)-4-[[3-methoxy-4-[1-(trideuteriomethyl)-1,2,4-triazol-3-yl]-2-pyridyl]amino]-N-(trideuteriomethyl)pyridazine-3-carboxamide] | < 100 |
| COc1c(Nc2cc(NC(=O)[C@@H]3C[C@@H]3F)ncc2C(=O)C2CC2)cccc1-c1ncn(C)n1 [Example 161] | < 100 |

biological target: TYK2 (JH2 domain) (Homo sapiens (Human), UniProt P29597); assay: TYK2 JH2 domain binding assay (DiscoverX KINOMEscan); conditions: 11-point 3-fold dilution, duplicate
Sequence (P29597 589-875): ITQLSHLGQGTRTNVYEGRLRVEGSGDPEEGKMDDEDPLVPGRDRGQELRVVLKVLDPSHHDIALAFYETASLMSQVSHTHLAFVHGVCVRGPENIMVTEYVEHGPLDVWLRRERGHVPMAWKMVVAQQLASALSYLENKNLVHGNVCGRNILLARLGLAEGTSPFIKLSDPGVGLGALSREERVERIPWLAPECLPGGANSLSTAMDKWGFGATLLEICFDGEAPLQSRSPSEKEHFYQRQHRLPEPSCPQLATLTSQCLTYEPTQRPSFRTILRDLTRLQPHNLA

| Kd [nM] | Compound |
| --- | --- |
| ≤ 1 | [2H]C([2H])([2H])NC(=O)c1nnc(/C=C/C2CC2)cc1Nc1cccc(-c2ncn(C)n2)c1OC [Example 45] |
| ≤ 1 | COc1c(Nc2cc(Cl)nnc2C(=O)C(F)F)cccc1-c1ncn(C)n1 [Example 46] |
| ≤ 1 | [2H]C([2H])([2H])NC(=O)c1nnc(N2CC3(COC3)C2)cc1Nc1cccc(-c2ncn(C)n2)c1OC [Example 53] |
| 5 to 10 | [2H]C([2H])([2H])NC(=O)c1nnc(N2CC(F)(F)C2)cc1Nc1cccc(-c2ncn(C)n2)c1OC [Example 58] |
| 5 to 10 | [2H]C([2H])([2H])NC(=O)c1nnc(-n2cccn2)cc1Nc1cccc(-c2ncn(C)n2)c1OC [Example 65] |
| 1 to 5 | [2H]C([2H])([2H])NC(=O)c1nnc(-n2ccc(C)n2)cc1Nc1cccc(-c2ncn(C)n2)c1OC [Example 66] |
| 1 to 5 | [2H]C([2H])([2H])NC(=O)c1nnc(N2CCCC2)cc1Nc1cccc(-c2ncn(C)n2)c1OC [Example 70] |
| 5 to 10 | [2H]C([2H])([2H])NC(=O)c1nnc(C=C(C)C)cc1Nc1cccc(-c2ncn(C)n2)c1OC [Example 73] |
| ≤ 1 | [2H]C([2H])([2H])NC(=O)c1nnc(N2CCC3(CCNCC3)C2=O)cc1Nc1cccc(-c2ncn(C)n2)c1OC [Example 75] |
| 1 to 5 | [2H]C([2H])([2H])NC(=O)c1nnc(N2C[C@H](O)CC2=O)cc1Nc1cccc(-c2ncn(C)n2)c1OC [Example 76] |
| ≤ 1 | [2H]C([2H])([2H])NC(=O)c1nnc(N2CCN(C3CCC3O)C2=O)cc1Nc1cccc(-c2ncn(C)n2)c1OC (stereo not shown) [Example 81] |
| ≤ 1 | [2H]C([2H])([2H])NC(=O)c1nnc(N2CCN(C(C)C(F)(F)F)C2=O)cc1Nc1cccc(-c2ncn(C)n2)c1OC (stereo not shown) [Example 83] |
| ≤ 1 | [2H]C([2H])([2H])NC(=O)c1nnc(N2CCN(CC(C)(C)O)C2=O)cc1Nc1cccc(-c2ncn(C)n2)c1OC [Example 90] |
| ≤ 1 | [2H]C([2H])([2H])NC(=O)c1nnc(N2CCN(C(CO)C(C)C)C2=O)cc1Nc1cccc(-c2ncn(C)n2)c1OC (stereo not shown) [Example 92] |
| ≤ 1 | [2H]C([2H])([2H])NC(=O)c1nnc(N2CCN(CCN(CC)CC)C2=O)cc1Nc1cccc(-c2ncn(C)n2)c1OC [Example 93] |
| ≤ 1 | [2H]C([2H])([2H])NC(=O)c1nnc(N2CCN(C(C)COC)C2=O)cc1Nc1cccc(-c2ncn(C)n2)c1OC (stereo not shown) [Example 97] |
| ≤ 1 | [2H]C([2H])([2H])NC(=O)c1nnc(N2CCN(C3CC(C)(C)C3)C2=O)cc1Nc1cccc(-c2ncn(C)n2)c1OC [Example 101] |
| ≤ 1 | [2H]C([2H])([2H])NC(=O)c1nnc(N2CCN(C(CC)CC)C2=O)cc1Nc1cccc(-c2ncn(C)n2)c1OC [Example 102] |
| 5 to 10 | Cn1cnc(-c2cccc3c2OCCOCCOc2nnccc2N3)n1 [Example 104] |

| Compound | Kd [nM] |
| --- | --- |
| COc1c(Nc2cc(N3CCN(C(C)C)C3=O)ncc2C(=O)C2CC2)cccc1-c1ncn(C)n1 [Example 35] | ≤ 1 |
| COc1c(Nc2cc(N[S@+]([O-])C(C)(C)C)ncc2C(=O)C2CC2)cccc1-c1ncn(C)n1 [Example 118] | > 10 |
| COc1c(Nc2cc(N[S@@+]([O-])C(C)(C)C)ncc2C(=O)C2CC2)cccc1-c1ncn(C)n1 [Example 123] | > 10 |
